From the NIST ThermoML archive (doi:10.1016/j.jct.2011.02.008)

Assay: xn = mol fraction of the nth substance listed
Settings: Liquid, Vibrating tube method

COC(=O)c1ccccc1 [methyl benzoate] + CCCCCCO
mass density [kg/m3]
Settings	x1 = 0.1004	x1 = 0.2007	x1 = 0.3007	x1 = 0.4013	x1 = 0.5005	x1 = 0.6009	x1 = 0.7	x1 = 0.8008	x1 = 0.9009
318.15 K, 30000 kPa	846.9	872.9	899.1	925.4	951.5	977.9	1003.9	1030.5	1056.8
318.15 K, 35000 kPa	849.9	875.9	902.1	928.4	954.5	980.9	1006.9	1033.5	1059.8
318.15 K, 40000 kPa	852.8	878.8	905.1	931.4	957.4	983.8	1009.8	1036.4	1062.7
318.15 K, 45000 kPa	855.7	881.7	907.9	934.3	960.3	986.7	1012.7	1039.3	1065.6
318.15 K, 50000 kPa	858.4	884.5	910.7	937.1	963.1	989.5	1015.5	1042.1	1068.4
318.15 K, 55000 kPa	861.1	887.2	913.4	939.8	965.8	992.2	1018.2	1044.6	1071.1
318.15 K, 60000 kPa	863.6	889.6	915.9	942.3	968.3	994.9	1020.7	1047.2	1073.6
328.15 K, 100 kPa	818.7	844.4	870.4	896.7	922.5	948.8	974.9	1001.4	1027.8
328.15 K, 1000 kPa	819.4	845.1	871.1	897.4	923.2	949.5	975.6	1002.1	1028.5
328.15 K, 5000 kPa	822.6	848.3	874.3	900.5	926	952.6	978.6	1005.1	1031.5
328.15 K, 10000 kPa	826.4	852.1	878.1	904.3	930.1	956.3	982.2	1008.7	1035.1
328.15 K, 15000 kPa	830	855.7	881.7	907.8	933.7	959.9	985.8	1012.3	1038.6
328.15 K, 20000 kPa	833.5	859.2	885.2	911.3	937.2	963.3	989.2	1015.7	1042
328.15 K, 25000 kPa	836.9	862.6	888.6	914.6	940.5	966.6	992.5	1019	1045.3
328.15 K, 30000 kPa	840.1	865.8	891.8	917.9	943.7	969.9	995.7	1022.2	1048.5
328.15 K, 35000 kPa	843.3	869	895	921.1	946.9	973	998.9	1025.3	1051.6
328.15 K, 40000 kPa	846.3	872	898	924.1	950	976	1001.9	1028.3	1054.6
328.15 K, 45000 kPa	849.2	874.9	901	927.1	952.9	979	1004.9	1031.3	1057.6
328.15 K, 50000 kPa	852.1	877.8	903.9	930	955.8	981.9	1007.8	1034.2	1060.5
328.15 K, 55000 kPa	854.9	880.6	906.7	932.8	958.7	984.8	1010.7	1037.1	1063.3
328.15 K, 60000 kPa	857.4	883.2	908.8	935.6	960.6	987.4	1013.3	1039.6	1066.1
338.15 K, 100 kPa	810.7	836.2	862	888	913.7	939.7	965.6	992	1018.4
338.15 K, 1000 kPa	811.4	837	862.7	888.7	914.4	940.4	966.3	992.7	1019.1
338.15 K, 5000 kPa	814.9	840.4	866.1	892	917.7	943.7	969.5	996	1022.3
338.15 K, 10000 kPa	818.9	844.3	870.1	896	921.6	947.6	973.4	999.7	1026
338.15 K, 15000 kPa	822.7	848.2	873.8	899.7	925.4	951.4	977.2	1003.4	1029.7
338.15 K, 20000 kPa	826.4	851.8	877.5	903.4	929.1	955	980.7	1007	1033.3
338.15 K, 25000 kPa	829.9	855.3	881	906.9	932.5	958.5	984.2	1010.5	1036.7
338.15 K, 30000 kPa	833.3	858.7	884.4	910.3	935.9	961.8	987.5	1013.8	1040
338.15 K, 35000 kPa	836.5	862	887.7	913.6	939.2	965.1	990.8	1017.1	1043.3
338.15 K, 40000 kPa	839.7	865.1	890.9	916.8	942.4	968.3	994	1020.2	1046.4
338.15 K, 45000 kPa	842.7	868.2	894	919.9	945.5	971.4	997.1	1023.3	1049.5
338.15 K, 50000 kPa	845.7	871.2	897	922.9	948.5	974.4	1000.1	1026.4	1052.5
338.15 K, 55000 kPa	848.6	874.1	899.9	925.8	951.4	977.4	1003.1	1029.3	1055.5
338.15 K, 60000 kPa	851.4	876.8	902.8	928.7	954.3	980.1	1005.8	1032	1058.2
348.15 K, 100 kPa	802.6	827.8	853.4	879.1	904.6	930.4	956.1	982.5	1008.8
348.15 K, 1000 kPa	803.3	828.6	854.2	879.9	905.4	931.3	956.9	983.2	1009.5
348.15 K, 5000 kPa	807	832.2	857.7	883.4	908.8	934.7	960.3	986.6	1012.9
348.15 K, 10000 kPa	811.2	836.4	861.9	887.6	913	938.8	964.4	990.7	1016.9
348.15 K, 15000 kPa	815.2	840.4	865.9	891.4	917	942.8	968.4	994.6	1020.7
348.15 K, 20000 kPa	819	844.2	869.7	895.4	920.8	946.6	972.1	998.3	1024.4
348.15 K, 25000 kPa	822.7	847.9	873.4	899.1	924.5	950.2	975.8	1001.9	1028
348.15 K, 30000 kPa	826.2	851.4	877	902.6	928	953.8	979.3	1005.4	1031.5
348.15 K, 35000 kPa	829.6	854.8	880.4	906	931.4	957.2	982.7	1008.9	1034.9
348.15 K, 40000 kPa	832.9	858.1	883.7	909.3	934.7	960.5	986	1012.2	1038.2
348.15 K, 45000 kPa	836.1	861.3	886.9	912.5	938	963.7	989.3	1015.4	1041.4
348.15 K, 50000 kPa	839.1	864.4	890	915.7	941.1	966.9	992.4	1018.5	1044.5
348.15 K, 55000 kPa	842.1	867.4	893	918.7	944.2	969.9	995.5	1021.6	1047.6
348.15 K, 60000 kPa	844.9	870.2	895.8	921.5	947	972.8	998.2	1024.6	1050.4
358.15 K, 100 kPa	794.1	819.1	844.4	869.9	895.3	921	946.6	972.8	999
358.15 K, 1000 kPa	795	820	845.3	870.8	896.1	921.7	947.4	973.6	999.8
358.15 K, 5000 kPa	798.7	823.7	849	874.5	899.8	925.5	951	977.2	1003.3
358.15 K, 10000 kPa	803.1	828.2	853.5	878.9	904.2	929.9	955.3	981.4	1007.5
358.15 K, 15000 kPa	807.4	832.4	857.7	883.1	908.4	934	959.5	985.5	1011.6
358.15 K, 20000 kPa	811.4	836.4	861.7	887.1	912.3	938	963.4	989.5	1015.5
358.15 K, 25000 kPa	815.3	840.3	865.6	891	916.2	941.8	967.3	993.3	1019.3
358.15 K, 30000 kPa	818.9	844	869.3	894.7	919.9	945.5	970.9	996.9	1022.9
358.15 K, 35000 kPa	822.4	847.6	872.8	898.3	923.5	949.1	974.5	1000.5	1026.5
358.15 K, 40000 kPa	825.9	851	876.3	901.7	926.9	952.6	978	1003.9	1029.9
358.15 K, 45000 kPa	829.2	854.3	879.6	905.1	930.3	956	981.3	1007.3	1033.2
358.15 K, 50000 kPa	832.4	857.5	882.9	908.3	933.6	959.3	984.6	1010.6	1036.5
358.15 K, 55000 kPa	835.5	860.7	886	911.5	936.7	962.4	987.8	1013.7	1039.7
358.15 K, 60000 kPa	838.5	863.5	889.1	914.4	939.8	965.3	990.7	1016.9	1042.6
